Assay results taken from US12234236B1, “GLP-1R agonist and therapeutic method thereof” (Ascletis Pharma (China) Co., Limited, priority 2023, dated 2025).

Legend:
hGLP-1R = target: T1, hGLP-1R (Homo sapiens, UniProt P43220); experiment: hGLP-1R agonist cAMP stimulation assay; type: cell-based; settings: Flp-In-293-GLP1R cells, 30 minutes at 37° C.
T1 construct: expressed in transfected cells; host or cells: Flp-In-293 (HEK293-derived) cells carrying GLP1R
Procedure: 1. Cell Line and Reagent Preparation
• 1) Cell line: Flp-In-293-GLP1R • 2) Medium: DMEM+10% FBS+1×Penicillin-Streptomycin+200 μg/mL HB • 3) Test buffer: 1×HBSS+20 mM HEPES+0.1% BSA+500 μM IBMX 2. Agonist Test • a) Flpin-293-GLP1R cells were incubated in a 384-well assay plate (6007680-50, PB) using a complete medium with 2,000 cells per well. • b) Prepared a 4× […] working solution with assay buffer. • c) Added 5 μL of 4× Compound Working Solution to the cell plate and incubated at 37° C. for 30 minutes. • d) Diluted the Eu-cAMP tracer (1/50) with lysis buffer and added 10 μl/well to the assay plate. • e) Diluted Ulight-anti-cAMP (1/150) with lysis buffer and added 10 μl/well to the assay plate. • f) The assay plate was incubated at constant temperature for 1 hour. • g) Read the plate on Envision 2105 plate reader at […]. 3.

[1] = Single-dose subcutaneous injection pharmacokinetic study in SD rats; type: in vivo; settings: Sprague-Dawley, rat, blood, sc, male SD rats, 30 mg/kg, vehicle 80% MCT + 20% benzyl alcohol, read-out: AUC0-696h
Procedure: Pharmacokinetic Studies in Sprague-Dawley (SD) Rats
1. Single-Dose Subcutaneous Injection Pharmacokinetic Studies Sprague-Dawley (SD) Rats
Pharmacokinetic (PK) studies after a single-dose subcutaneous injection for compounds: 1, 13, 18, 19, 20, 21 and orforglipron. Protocol: Animals: Male Sprague-Dawley (SD) rats; Vehicle: 80% MCT (Medium-Chain Triglycerides)+20% benzyl alcohol; Dose: 30 mg/kg in the vehicle; Dosing concentration: 30 mg/mL; Dosing volume: 1 mL/kg; Administration site: Subcutaneous injection at the back of the animal. Blood sampling time points: pre-dose, 1 h, 2 h, 8 h, 24 h, 48 h, 72 h, 96 h, 120 h, 144 h, 216 h, 312 h, 480 h, 696 h. Blood samples were collected, and the blood samples were analyzed by LC-MS/MS.

[2] = Single-dose oral administration pharmacokinetic study in SD rats; type: in vivo; settings: Sprague-Dawley, rat, whole blood, 5 mg/kg; for AUC(0-t): read-out: AUC0-48h
Procedure: 2. Single-Dose Oral Administration Pharmacokinetic (PK) Studies in Sprague-Dawley (SD) Rats
Pharmacokinetic (PK) studies after a single-dose oral administration for compounds. Protocol: Animals: Sprague-Dawley (SD) rats; Solvent: Solutol: PEG400: Tween80: Saline=10:40:2:48 (v/v/v/v); Dose: 5 mg/kg; Dosing concentration: 0.5 mg/mL in the solvent; Dosing volume: 10 mL/kg; Blood sampling time points: pre-dose, 0.25 h, 0.5 h, 1 h, 2 h, 3 h, 4 h, 8 h, 12 h, 18, 24 h, 32 h, 40 h, 48 h. Sample Collection: At each time point, approximately 0.15 mL of blood was drawn from the jugular vein sinus, and the collected whole blood was placed in an anticoagulant tube containing EDTA-K2. After collecting blood samples, they were processed with protein precipitation and then analyzed by LC-MS/MS.

T1 sequence (P43220 24-463): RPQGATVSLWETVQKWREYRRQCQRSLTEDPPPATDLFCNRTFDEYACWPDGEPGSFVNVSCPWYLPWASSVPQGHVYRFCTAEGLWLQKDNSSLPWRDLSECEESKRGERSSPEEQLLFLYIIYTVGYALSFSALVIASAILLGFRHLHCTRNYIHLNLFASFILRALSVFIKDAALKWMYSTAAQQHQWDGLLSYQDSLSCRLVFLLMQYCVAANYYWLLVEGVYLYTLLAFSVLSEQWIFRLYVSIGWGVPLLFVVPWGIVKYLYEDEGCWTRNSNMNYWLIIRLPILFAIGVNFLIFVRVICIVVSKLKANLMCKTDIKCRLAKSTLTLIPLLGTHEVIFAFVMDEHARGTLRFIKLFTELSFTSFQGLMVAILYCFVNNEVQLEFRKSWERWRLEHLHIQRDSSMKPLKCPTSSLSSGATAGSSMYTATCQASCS

Question: Which EC50 (hGLP-1R) does the source give for `Cc1cc(-n2nc3c(c2-n2ccn(-c4ccc5c(c4F)COB5O)c2=O)[C@H](C)N(C(=O)c2cc4cc(C5CCOCC5)ccc4n2[C@@]2(c4noc(=O)[nH]4)C[C@@H]2C)CC3)cc(C)c1F` [Compound 79] here?
Answer: The EC50 was 0.171 nM.

Question: With `Cc1cc(-n2nc3c(c2-n2ccn(-c4ccc5c(cnn5CC5CC5)c4F)c2=O)[C@H](C)N(C(=O)c2cc4cc([C@@H]5CCOC(C)(C)C5)ccc4n2[C@@]2(c4noc(=O)[nH]4)C[C@@H]2C)CC3)cc(C)c1F` [Compound 18] as the molecule, how does the AUC(0-t) [1] read?
Answer: Its AUC(0-t) is 51200 ng·h/mL.

Question: And the EC50 (hGLP-1R)?
Answer: The EC50 was 0.265 nM.

Question: For `Cc1cc(-n2nc3c(c2-n2ccn(-c4ccc5c(c4F)COB5O)c2=O)[C@H](C)N(C(=O)c2cc4cc(C5CCOC(C)(C)C5)ccc4n2[C@@]2(c4noc(=O)[nH]4)C[C@@H]2C)CC3)cc(C)c1F` (stereo partly drawn) [Compound 29], which EC50 (hGLP-1R) is on record?
Answer: Its EC50 is 0.063 nM.

Question: What does the source list for `Cc1cc(-n2nc3c(c2-n2ccn(-c4ccc5c(cnn5CC5CC5)c4F)c2=O)[C@H](C)N(C(=O)c2cc4cc(C5CCOC(C)(C)C5)ccc4n2[C@@]2(c4noc(=O)[nH]4)C[C@@H]2C)CC3)cc(C)c1F` (stereo partly drawn) [Compound 13]?
Answer: AUC(0-t) [1]: 23400 ng·h/mL; EC50 (hGLP-1R): 0.228 nM

Question: For `Cc1cc(-n2nc3c(c2-n2ccn(-c4ccc5c(cnn5C5CC5)c4F)c2=O)[C@H](C)N(C(=O)c2cc4cc(C5CCOCC5)ncc4n2[C@@]2(c4noc(=O)[nH]4)C[C@@H]2C)CC3)cc(C)c1F` [Compound 66], which EC50 (hGLP-1R) is on record?
Answer: Its EC50 is 0.014 nM.

Question: For `CCOP(=O)(Cc1ccc(-n2ccn(-c3c4c(nn3-c3cc(C)c(F)c(C)c3)CCN(C(=O)c3cc5cc(C6CCOCC6)ccc5n3[C@@]3(c5noc(=O)[nH]5)C[C@@H]3C)[C@H]4C)c2=O)cc1)OCC` [Compound 84], which EC50 (hGLP-1R) is on record?
Answer: Its EC50 is 0.08 nM.

Question: For `Cc1cc(-n2nc3c(c2-n2ccn(-c4ccc(CP(=O)(C5CC5)C5CC5)cc4)c2=O)[C@H](C)N(C(=O)c2cc4cc(C5CCOCC5)ccc4n2[C@@]2(c4noc(=O)[nH]4)C[C@@H]2C)CC3)cc(C)c1F` [Compound 81], which EC50 (hGLP-1R) is on record?
Answer: The EC50 was 0.042 nM.

Question: Which EC50 (hGLP-1R) does the source give for `Cc1cc(-n2nc3c(c2-n2ccn(-c4ccc(CP5(=O)CCCC5)cc4)c2=O)[C@H](C)N(C(=O)c2cc4cc(C5CCOCC5)ccc4n2[C@@]2(c4noc(=O)[nH]4)C[C@@H]2C)CC3)cc(C)c1F` [Compound 82] here?
Answer: Its EC50 is 0.011 nM.

Question: Which AUC(0-t) [1] does the source give for `Cc1cc(-n2nc3c(c2-n2ccn(-c4ccc5c(cnn5C5CC5)c4F)c2=O)[C@H](C)N(C(=O)c2cc4nc(C5CCOCC5)ccc4n2[C@@]2(c4noc(=O)[nH]4)C[C@@H]2C)CC3)cc(C)c1F` (single isomer, unassigned) [Compound 19] here?
Answer: The AUC(0-t) was 234000 ng·h/mL.

Question: And the EC50 (hGLP-1R)?
Answer: Its EC50 is 0.012 nM.

Question: And the Cmax [2]?
Answer: Its Cmax is 4460 ng/mL.

Question: What about the AUC(0-t) [2] of the same molecule?
Answer: Its AUC(0-t) is 60000 ng·h/mL.

Question: For `Cc1cc(-n2nc3c(c2-n2ccn(-c4ccc5c(c4)CS(=O)(=O)N5C)c2=O)[C@H](C)N(C(=O)c2cc4cc(C5CCOCC5)ccc4n2[C@@]2(c4noc(=O)[nH]4)C[C@@H]2C)CC3)cc(C)c1F` [Compound 76], which EC50 (hGLP-1R) is on record?
Answer: The EC50 was 0.019 nM.

Question: Which AUC(0-t) [1] does the source give for `Cc1cc(-n2nc3c(c2-n2ccn(-c4ccc5c(cnn5CC5CC5)c4F)c2=O)[C@H](C)N(C(=O)c2cc4cc(C5CCOCC5)ccc4n2[C@@]2(c4noc(=O)[nH]4)C[C@@H]2C)CC3)cc(C)c1F` [Compound 21] here?
Answer: The AUC(0-t) was 61500 ng·h/mL.

Question: And the EC50 (hGLP-1R)?
Answer: Its EC50 is 0.044 nM.

Question: Which EC50 (hGLP-1R) does the source give for `Cc1cc(-n2nc3c(c2-n2ccn(-c4ccc5c(c4)CCC(=O)N5C)c2=O)[C@H](C)N(C(=O)c2cc4cc(C5CCOCC5)ccc4n2[C@@]2(c4noc(=O)[nH]4)C[C@@H]2C)CC3)cc(C)c1F` [Compound 78] here?
Answer: The EC50 was 0.012 nM.

Question: For `Cc1cc(-n2nc3c(c2-n2ccn(-c4ccc5c(cnn5C5CC5)c4F)c2=O)[C@H](C)N(C(=O)c2cc4nc(C5CCOCC5)ccc4n2[C@@]2(c4noc(=O)[nH]4)C[C@@H]2C)CC3)cc(C)c1F` [Compound 65], which EC50 (hGLP-1R) is on record?
Answer: The EC50 was 0.092 nM.

Question: And the Cmax [2]?
Answer: The Cmax was 11000 ng/mL.

Question: And the AUC(0-t) [2]?
Answer: Its AUC(0-t) is 71800 ng·h/mL.

Question: For `Cc1cc(-n2nc3c(c2-n2ccn(-c4ccc5c(c4)NCCS5(=O)=O)c2=O)[C@H](C)N(C(=O)c2cc4cc(C5CCOCC5)ccc4n2[C@@]2(c4noc(=O)[nH]4)C[C@@H]2C)CC3)cc(C)c1F` [Compound 55], which EC50 (hGLP-1R) is on record?
Answer: Its EC50 is 0.15 nM.

Question: For `Cc1cc(-n2nc3c(c2-n2ccn(-c4ccc5c(cnn5C5CC5)c4F)c2=O)[C@H](C)N(C(=O)c2cc4cc(C5CCOCC5)cnc4n2[C@@]2(c4noc(=O)[nH]4)C[C@@H]2C)CC3)cc(C)c1F` [Compound 70], which EC50 (hGLP-1R) is on record?
Answer: Its EC50 is 0.064 nM.

Question: Which EC50 (hGLP-1R) does the source give for `Cc1cc(-n2nc3c(c2-n2ccn(-c4ccc(NS(C)(=O)=O)cc4)c2=O)C2CCC(C3)N2C(=O)c2cc3nc(C4CCOCC4)ccc3n2[C@@]2(c3noc(=O)[nH]3)C[C@@H]2C)cc(C)c1F` (stereo partly drawn) [Compound 24] here?
Answer: The EC50 was 0.868 nM.

Question: For `Cc1cc(-n2nc3c(c2-n2ccn(-c4ccc(CP(C)(C)=O)cc4)c2=O)[C@H](C)N(C(=O)c2cc4cc(C5CCOCC5)ccc4n2[C@@]2(c4noc(=O)[nH]4)C[C@@H]2C)CC3)cc(C)c1F` [Compound 50], which EC50 (hGLP-1R) is on record?
Answer: Its EC50 is 0.028 nM.

Question: With `Cc1cc(-n2nc3c(c2-n2ccn(-c4ccc5c(cnn5C)c4F)c2=O)[C@H](C)N(C(=O)c2cc4cc([C@H]5CCOC(C)(C)C5)ccc4n2[C@@]2(c4noc(=O)[nH]4)C[C@@H]2C)CC3)cc(C)c1F` [Orforglipron, orforglipron, reference compound] as the molecule, how does the AUC(0-t) [1] read?
Answer: Its AUC(0-t) is 5390 ng·h/mL.

Question: And the Cmax [2]?
Answer: The Cmax was 799 ng/mL.

Question: What about the AUC(0-t) [2] of the same molecule?
Answer: The AUC(0-t) was 7220 ng·h/mL.

Question: With `Cc1cc(-n2nc3c(c2-n2ccn(-c4ccc5c(c4F)CCS(=O)(=O)N5C)c2=O)[C@H](C)N(C(=O)c2cc4cc(C5CCOCC5)ccc4n2[C@@]2(c4noc(=O)[nH]4)C[C@@H]2C)CC3)cc(C)c1F` [Compound 35] as the molecule, how does the EC50 (hGLP-1R) read?
Answer: The EC50 was 0.025 nM.

Question: For `CCP(=O)(CC)Cc1ccc(-n2ccn(-c3c4c(nn3-c3cc(C)c(F)c(C)c3)CCN(C(=O)c3cc5cc(C6CCOCC6)ccc5n3[C@@]3(c5noc(=O)[nH]5)C[C@@H]3C)[C@H]4C)c2=O)cc1` [Compound 80], which EC50 (hGLP-1R) is on record?
Answer: The EC50 was 0.038 nM.

Question: With `Cc1cc(-n2nc3c(c2-n2ccn(-c4ccc5c(c4F)CCS(=O)(=O)N5)c2=O)[C@H](C)N(C(=O)c2cc4cc(C5CCOCC5)ccc4n2[C@@]2(c4noc(=O)[nH]4)C[C@@H]2C)CC3)cc(C)c1F` [Compound 36] as the molecule, how does the EC50 (hGLP-1R) read?
Answer: Its EC50 is 0.05 nM.

Question: With `Cc1cc(-n2nc3c(c2-n2ccn(-c4ccc5c(c4)oc(=O)n5C)c2=O)[C@H](C)N(C(=O)c2cc4cc(C5CCOCC5)ccc4n2[C@@]2(c4noc(=O)[nH]4)C[C@@H]2C)CC3)cc(C)c1F` [Compound 77] as the molecule, how does the EC50 (hGLP-1R) read?
Answer: The EC50 was 0.022 nM.

Question: For `Cc1cc(-n2nc3c(c2-n2ccn(-c4ccc5c(c4F)CS(=O)(=O)N5)c2=O)[C@H](C)N(C(=O)c2cc4cc(C5CCOCC5)ccc4n2[C@@]2(c4noc(=O)[nH]4)C[C@@H]2C)CC3)cc(C)c1F` [Compound 37], which EC50 (hGLP-1R) is on record?
Answer: The EC50 was 0.06 nM.

Question: What does the source list for `Cc1cc(-n2nc3c(c2-n2ccn(-c4ccc5c(cnn5C5CCC5)c4F)c2=O)[C@H](C)N(C(=O)c2cc4cc(C5CCOCC5)ccc4n2[C@@]2(c4noc(=O)[nH]4)C[C@@H]2C)CC3)cc(C)c1F` [Compound 20]?
Answer: AUC(0-t) [1]: 77700 ng·h/mL; EC50 (hGLP-1R): 0.018 nM; Cmax [2]: 1900 ng/mL; AUC(0-t) [2]: 17000 ng·h/mL

Question: With `Cc1cc(-n2nc3c(c2-n2ccn(-c4ccc5c(cnn5C5CC5)c4F)c2=O)[C@H](C)N(C(=O)c2cc4cc([C@H]5CCOC(C)(C)C5)ccc4n2[C@@]2(c4noc(=O)[nH]4)C[C@@H]2C)CC3)cc(C)c1F` [Compound 1] as the molecule, how does the AUC(0-t) [1] read?
Answer: Its AUC(0-t) is 60300 ng·h/mL.

Question: And the EC50 (hGLP-1R)?
Answer: The EC50 was 0.094 nM.
